How the values were obtained:
[1] = Growth inhibition of human SF268 cells at 10 uM after 48 hrs by SRB assay relative to control; format: functional; settings: SF-268, 48 h, read-out: GI
[2] = Growth inhibition of human RXF393 cells at 10 uM after 48 hrs by SRB assay relative to control; format: functional; settings: RXF 393, 48 h, read-out: GI
[3] = Growth inhibition of human HCT15 cells at 10 uM after 48 hrs by SRB assay relative to control; format: functional; settings: HCT-15, 48 h, read-out: GI
[4] = Growth inhibition of human SF539 cells at 10 uM after 48 hrs by SRB assay relative to control; format: functional; settings: SF-539, 48 h, read-out: GI
[5] = Growth inhibition of human OVCAR4 cells at 10 uM after 48 hrs by SRB assay relative to control; format: functional; settings: OVCAR-4, 48 h, read-out: GI
Ovis aries = species on record: Ovis aries; experiment: Inhibition of sheep brain tubulin polymerization at 100 uM by DAPI staining-based fluorimetric method
[6] = Growth inhibition of human SW620 cells at 10 uM after 48 hrs by SRB assay relative to control; format: functional; settings: SW-620, 48 h, read-out: GI
SR = experiment: Growth inhibition of human SR cells at 10 uM after 48 hrs by SRB assay relative to control; format: functional; settings: read-out: GI
MDA-MB-231 = experiment: Growth inhibition of human MDA-MB-231 cells at 10 uM after 48 hrs by SRB assay relative to control; format: functional; settings: MDA-MB-231, 48 h, read-out: GI
[7] = Growth inhibition of human NCI-ADR-RES cells at 10 uM after 48 hrs by SRB assay relative to control; format: functional; settings: read-out: GI
[8] = Growth inhibition of human HL-60(TB) cells at 10 uM after 48 hrs by SRB assay relative to control; format: functional; settings: HL-60, 48 h, read-out: GI
A498 = experiment: Growth inhibition of human A498 cells at 10 uM after 48 hrs by SRB assay relative to control; format: functional; settings: A498, 48 h, read-out: GI
SK-MEL-5 = experiment: Growth inhibition of human SK-MEL-5 cells at 10 uM after 48 hrs by SRB assay relative to control; format: functional; settings: SK-MEL-5, 48 h, read-out: GI
KM12 = experiment: Growth inhibition of human KM12 cells at 10 uM after 48 hrs by SRB assay relative to control; format: functional; settings: KM12, 48 h, read-out: GI
CCRF-CEM = experiment: Growth inhibition of human CCRF-CEM cells at 10 uM after 48 hrs by SRB assay relative to control; format: functional; settings: read-out: GI
SN12C = experiment: Growth inhibition of human SN12C cells at 10 uM after 48 hrs by SRB assay relative to control; format: functional; settings: read-out: GI
HT-29 = experiment: Growth inhibition of human HT-29 cells at 10 uM after 48 hrs by SRB assay relative to control; format: functional; settings: HT-29, 48 h, read-out: GI
[9] = Growth inhibition of human UACC257 cells at 10 uM after 48 hrs by SRB assay relative to control; format: functional; settings: UACC-257, 48 h, read-out: GI
[10] = Growth inhibition of human SNB75 cells at 10 uM after 48 hrs by SRB assay relative to control; format: functional; settings: SNB-75, 48 h, read-out: GI
[11] = Growth inhibition of human TK10 cells at 10 uM after 48 hrs by SRB assay relative to control; format: functional; settings: TK-10, 48 h, read-out: GI
[12] = Growth inhibition of human MOLT4 cells at 10 uM after 48 hrs by SRB assay relative to control; format: functional; settings: MOLT-4, 48 h, read-out: GI
[13] = Growth inhibition of human Hs 578T cells at 10 uM after 48 hrs by SRB assay relative to control; format: functional; settings: read-out: GI
Malme-3M = experiment: Growth inhibition of human MALME-3M cells at 10 uM after 48 hrs by SRB assay relative to control; format: functional; settings: read-out: GI

| Structure (SMILES) | inhibition of growth at 10 µM [1] | inhibition of growth at 10 µM [2] | inhibition of growth at 10 µM [3] | inhibition of growth at 10 µM [4] | inhibition of growth at 10 µM [5] | inhibition (Ovis aries) | inhibition of growth at 10 µM [6] | inhibition of growth at 10 µM (SR) | inhibition of growth at 10 µM [7] | inhibition of growth at 10 µM [8] | inhibition of growth at 10 µM (A498) | inhibition of growth at 10 µM (SK-MEL-5) | inhibition of growth at 10 µM (KM12) | inhibition of growth at 10 µM (CCRF-CEM) | inhibition of growth at 10 µM (SN12C) | inhibition of growth at 10 µM (HT-29) | inhibition of growth at 10 µM [9] | inhibition of growth at 10 µM [10] | inhibition of growth at 10 µM [11] | inhibition of growth at 10 µM [12] | other results |
| --- | --- | --- | --- | --- | --- | --- | --- | --- | --- | --- | --- | --- | --- | --- | --- | --- | --- | --- | --- | --- | --- |
| O=C(c1ccc(Cl)cc1Cl)N1c2ccccc2Sc2ccccc21 | 50% | 30% | 70% | 58% | 18% | 44% | 62% | 68% | 39% | 64% | 31% | 65% | 50% | 43% | 33% | 52% | 36% | 40% | 27% | 74% | inhibition of growth at 10 µM (MDA-MB-231): 31%; inhibition of growth at 10 µM [13]: 4%; inhibition of growth at 10 µM (Malme-3M): 36% |
| O/N=C(/c1ccc2c(c1)Sc1ccccc1N2)c1c[nH]c2ccccc12 | 44% | 24% | 58% | 29% | 26% | 15% | 74% | 91% | 80% | 87% | 53% | 40% | 76% | 76% | 27% | 84% | 18% | 47% | 21% | 74% | inhibition of growth at 10 µM [13]: 40%; inhibition of growth at 10 µM (Malme-3M): 45% |
| O=C(c1ccc(F)cc1F)N1c2ccccc2Sc2ccccc21 | 46% | 35% | 76% | 49% | 17% | 25% | 66% | 72% | 55% | 71% | 38% | 68% | 62% | 38% | 9% | 68% | 44% | 31% | 23% | 69% | inhibition of growth at 10 µM (MDA-MB-231): 38%; inhibition of growth at 10 µM [13]: 16%; inhibition of growth at 10 µM (Malme-3M): 44% |

From ChEMBL document CHEMBL3792297, “Studies on phenothiazines: New microtubule-interacting compounds with phenothiazine A-ring as potent antineoplastic agents” (Bioorg Med Chem, 2016)
